According to ChEMBL document CHEMBL5576160, “N-Substituted Pyrrole-Based Heterocycles as Broad-Spectrum Filoviral Entry Inhibitors” (J Med Chem, 2024):

How the values were obtained:
[1] = tested on: Marburgvirus; assay: Antiviral activity against pseudotyped Marburgvirus Angola infected in human A549 cells assessed as inhibition of Pseudoviral entry incubated for 40 hrs; type: functional, organism-based; conditions: Orthomarburgvirus, A549, 40 h
[2] = Selectivity index, ratio of CC50 for cytotoxicity against human A549 cells to EC50 for antiviral activity against pseudotyped EBOV Mayinga infected in human A549 cells assessed as inhibition of Pseudoviral entry; type: toxicity, cell-based; conditions: read-out: Ratio CC50/EC50
[3] = tested on: Ebolavirus; assay: Antiviral activity against pseudotyped EBOV Mayinga infected in human A549 cells assessed as inhibition of Pseudoviral entry incubated for 40 hrs; type: functional, organism-based; conditions: Orthoebolavirus, A549, 40 h
[4] = Selectivity index, ratio of CC50 for cytotoxicity against human A549 cells to EC50 for antiviral activity against pseudotyped Marburgvirus Angola infected in human A549 cells assessed as inhibition of Pseudoviral entry; type: toxicity, cell-based; conditions: read-out: Ratio CC50/EC50
[5] = tested on: A549; assay: Cytotoxicity against human A549 cells assessed as as reduction in cell viability incubated for 48 hrs by celltiter-glo assay; type: functional
[6] = Stability in human plasma measured after 60 mins; type: ADME, cell-free; conditions: read-out: Stability
[7] = Stability in mouse plasma measured after 60 mins; type: ADME, cell-free; conditions: read-out: Stability
[8] = tested on: Tai Forest ebolavirus; assay: Antiviral activity against pseudotyped Tai Forest ebolavirus infected in human A549 cells assessed as inhibition of viral growth; type: functional, organism-based
[9] = tested on: Bundibugyo virus; assay: Antiviral activity against pseudotyped Bundibugyo virus infected in human A549 cells assessed as inhibition of viral growth; type: functional, organism-based
[10] = tested on: Sudan ebolavirus; assay: Antiviral activity against pseudotyped Sudan ebolavirus Gulu infected in human A549 cells assessed as inhibition of viral growth; type: functional, organism-based
[11] = tested on: Sudan ebolavirus; assay: Antiviral activity against pseudotyped Sudan ebolavirus Gulu infected in human HeLa cells assessed as inhibition of viral replication; type: functional, organism-based
[12] = tested on: Ebolavirus; assay: Antiviral activity against EBOV Mayinga infected in human HeLa cells assessed as inhibition of viral replication incubated for 40 hrs; type: functional, organism-based; conditions: Orthoebolavirus
[13] = tested on: Marburgvirus; assay: Antiviral activity against Marburgvirus Angola infected in human Huh-7 cells assessed as inhibition of viral replication; type: functional, organism-based; conditions: Orthomarburgvirus

## CC(C)N1CCN(C(=O)c2cc3occc3n2Cc2cccc(C(F)(F)F)c2)CC1
[1]
  EC50: 22.2 µM
[2]
  selectivity ratio: 29
[3]
  EC50: 3.43 µM
[4]
  selectivity ratio: 4.4

## CN(C)C1CCN(C(=O)CN(Cc2ccccc2)c2ccccc2)CC1
[1]
  EC50: > 100 µM
[2]
  selectivity ratio: 9.4
[3]
  EC50: 10.7 µM
[4]
  selectivity ratio: < 1

## CN(C)CCNC(=O)c1cc2occc2n1Cc1ccc(F)cc1
[1]
  EC50: 10.8 µM
[2]
  selectivity ratio: > 38
[3]
  EC50: 2.62 µM
[4]
  selectivity ratio: > 93

## CN1CCCN(C(=O)c2cc3occc3n2Cc2ccc(Cl)cc2)CC1
[1]
  EC50: 10.5 µM
[2]
  selectivity ratio: 71
[3]
  EC50: 1.41 µM
[4]
  selectivity ratio: 9.6

## O=C(c1cc2ccccc2n1Cc1ccccc1)N1CCCCC1
[1]
  EC50: > 100 µM
[2]
  selectivity ratio: 11
[3]
  EC50: 9.11 µM
[4]
  selectivity ratio: 11

## CN(C)CCNC(=O)c1cc2occc2n1Cc1ccccc1
[1]
  EC50: 25.6 µM
[2]
  selectivity ratio: 22
[3]
  EC50: 4.51 µM
[4]
  selectivity ratio: 3.9

## CN(C)CCNC(=O)c1cc2ccccc2n1Cc1ccc(-c2ccccc2)cc1
[1]
  EC50: 3.1 µM
[2]
  selectivity ratio: 5.9
[3]
  EC50: 2.77 µM
[4]
  selectivity ratio: 14

## CN1CCCN(C(=O)c2cc3occc3n2Cc2cccc(C(F)(F)F)c2)CC1
[1]
  EC50: 8.64 µM
[2]
  selectivity ratio: 40
[3]
  EC50: 1.73 µM
[4]
  selectivity ratio: 8.1

## CN(C)CCNC(=O)c1cc2occc2n1Cc1cccc(C(F)(F)F)c1
[1]
  EC50: 4.29 µM
[2]
  selectivity ratio: 32
[3]
  EC50: 1.68 µM
[4]
  selectivity ratio: 13

## CN(C)CCNC(=O)c1cc2sccc2n1Cc1ccc(Cl)cc1
[1]
  EC50: 3.14 µM
[2]
  selectivity ratio: 19
[3]
  EC50: 2.17 µM
[4]
  selectivity ratio: 13

## CN(C)CCCNC(=O)c1cc2occc2n1Cc1ccc(Cl)cc1
[1]
  EC50: 5.52 µM
[2]
  selectivity ratio: 36
[3]
  EC50: 2.01 µM
[4]
  selectivity ratio: 13

## CN(C)CCNC(=O)c1cc2occc2n1C(=O)OCc1ccccc1
[1]
  EC50: 31.1 µM
[2]
  selectivity ratio: > 12
[3]
  EC50: 8.11 µM
[4]
  selectivity ratio: > 3.1

## CN1CCN(CCCNC(=O)c2cc3occc3n2Cc2ccc(Cl)cc2)CC1
[1]
  EC50: 7.7 µM
[2]
  selectivity ratio: 42
[3]
  EC50: 1.86 µM
[4]
  selectivity ratio: 10

## CCOc1ncc(NC(=O)c2cc3occc3n2Cc2ccc(Cl)cc2)cc1F
[1]
  EC50: > 100 µM
[2]
  selectivity ratio: 41
[3]
  EC50: 2.43 µM
[4]
  selectivity ratio: 1
[5]
  CC50: > 100 µM

## CN(C)C1CCN(C(=O)c2cc3occc3n2Cc2ccc(F)cc2)CC1
[1]
  EC50: 11.4 µM
[2]
  selectivity ratio: > 25
[3]
  EC50: 3.93 µM
[4]
  selectivity ratio: > 8.8

## CN(C)CC1CN(C(=O)c2cc3occc3n2Cc2ccc(Cl)cc2)C1
[1]
  EC50: 4.57 µM
[2]
  selectivity ratio: 46
[3]
  EC50: 1.23 µM
[4]
  selectivity ratio: 12

## CN(C)CCNC(=O)c1cc2ccccc2n1Cc1ccc(F)cc1
[1]
  EC50: 4.21 µM
[2]
  selectivity ratio: 16
[3]
  EC50: 3.39 µM
[4]
  selectivity ratio: 8.9

## CN(C)C1CCN(C(=O)c2cn(Cc3ccc(F)cc3)c3ccccc23)CC1
[1]
  EC50: 10.9 µM
[2]
  selectivity ratio: 30
[3]
  EC50: 2.54 µM
[4]
  selectivity ratio: 6.9

## CCN(CC)CCNC(=O)c1cc2occc2n1Cc1ccc(Cl)cc1
[1]
  EC50: 3.67 µM
[2]
  selectivity ratio: 38
[3]
  EC50: 1.61 µM
[4]
  selectivity ratio: 17

## CN(C)C1CCN(C(=O)c2cc3ccccc3n2Cc2ccncc2)CC1
[1]
  EC50: 3.78 µM
[2]
  selectivity ratio: > 6.2
[3]
  EC50: 162 µM
[4]
  selectivity ratio: 27

## CN(C)CCNC(=O)c1cn(Cc2ccccc2)c2ccccc12
[1]
  EC50: 11.1 µM
[2]
  selectivity ratio: 21
[3]
  EC50: 3.28 µM
[4]
  selectivity ratio: 6.1

## O=C(Nc1ccc(N2CCOCC2)cc1)c1cc2occc2n1Cc1ccc(Cl)cc1
[1]
  EC50: > 100 µM
[2]
  selectivity ratio: 1
[3]
  EC50: > 100 µM
[4]
  selectivity ratio: 1
[5]
  CC50: > 100 µM

## CN(C)C1CCN(C(=O)c2cc3ccccc3n2Cc2ccccc2)CC1
[6]
  remaining at 1 h: 100%
[1]
  EC50: 9.53 µM
[2]
  selectivity ratio: ~180
[7]
  remaining at 1 h: 100%
[3]
  EC50: 0.55 µM
[4]
  selectivity ratio: 9.6
[5]
  CC50: ~100 µM

## CN(C)C1CCN(C(=O)c2cccn2Cc2ccccc2)CC1
[1]
  EC50: 17.8 µM
[2]
  selectivity ratio: 90
[3]
  EC50: 1.11 µM
[4]
  selectivity ratio: 5.6

## CN(C)C1CCN(C(=O)c2cc3occc3n2Cc2cccc(C(F)(F)F)c2)CC1
[1]
  EC50: 9.72 µM
[2]
  selectivity ratio: 67
[3]
  EC50: 1.5 µM
[4]
  selectivity ratio: 10
[5]
  CC50: ~100 µM

## CN(C)CCNC(=O)c1cc2ccccc2n1Cc1ccc(Cl)cc1
[1]
  EC50: 3.92 µM
[8]
  EC50: 3.74 µM
[2]
  selectivity ratio: 8.4
[3]
  EC50: 3.49 µM
[9]
  EC50: 2.66 µM
[4]
  selectivity ratio: 7.5
[10]
  EC50: 0.834 µM

## CN(C)C1CCN(C(=O)c2cc3ccccc3n2Cc2ccc(F)cc2)CC1
[11]
  EC50: 1.01 µM
[1]
  EC50: 4.99 µM
[8]
  EC50: 2.7 µM
[2]
  selectivity ratio: 100
[3]
  EC50: 0.453 µM
[9]
  EC50: 0.353 µM
[12]
  EC50: > 20 µM
[4]
  selectivity ratio: 13
[10]
  EC50: 0.554 µM
[13]
  EC50: > 20 µM

## CN(C)C1CCN(C(=O)c2cc3occc3n2C(=O)OCc2ccccc2)CC1
[1]
  EC50: 29.8 µM
[2]
  selectivity ratio: > 60
[3]
  EC50: 1.68 µM
[4]
  selectivity ratio: > 3.4

## O=C(Nc1ccc(N2CCC(F)(F)CC2)cc1)c1cc2occc2n1Cc1ccc(Cl)cc1
[1]
  EC50: > 100 µM
[8]
  EC50: > 100 µM
[2]
  selectivity ratio: 8.6
[3]
  EC50: 11.7 µM
[9]
  EC50: 36.4 µM
[4]
  selectivity ratio: 1
[5]
  CC50: > 100 µM
[10]
  EC50: 2.39 µM

## O=C(c1cc2sccc2n1Cc1ccc(Cl)cc1)N1CCN(C2CCCCC2)CC1
[1]
  EC50: 13.9 µM
[2]
  selectivity ratio: 4.9
[3]
  EC50: 10.9 µM
[4]
  selectivity ratio: 3.8

## CN(C)C1CCN(C(=O)c2cc3ccccc3n2C)CC1
[1]
  EC50: > 100 µM
[2]
  selectivity ratio: > 6.1
[3]
  EC50: 16.5 µM
[4]
  selectivity ratio: < 1

## O=C(NCCCn1ccnc1)c1cc2occc2n1Cc1ccc(Cl)cc1
[1]
  EC50: 13.2 µM
[2]
  selectivity ratio: 16
[3]
  EC50: 6.24 µM
[4]
  selectivity ratio: 7.6

## CN(C)C1CCN(C(=O)c2cc3ccccc3n2Cc2cccnc2)CC1
[1]
  EC50: 38.6 µM
[2]
  selectivity ratio: > 19
[3]
  EC50: 5.3 µM
[4]
  selectivity ratio: 2.6

## CN(C)C1CCN(C(=O)c2cc3ccccc3n2Cc2ccc(Cl)cc2)CC1
[1]
  EC50: 6.83 µM
[8]
  EC50: 4.95 µM
[2]
  selectivity ratio: 44
[3]
  EC50: 1.38 µM
[4]
  selectivity ratio: < 1
[10]
  EC50: 0.884 µM

## CN(C)C1CCN(C(=O)c2cc3sccc3n2Cc2ccc(Cl)cc2)CC1
[1]
  EC50: 3.7 µM
[8]
  EC50: 4.14 µM
[2]
  selectivity ratio: 61
[3]
  EC50: 0.899 µM
[9]
  EC50: 1.9 µM
[4]
  selectivity ratio: 15
[10]
  EC50: 1.01 µM

## CC1CCN(c2ccc(NC(=O)c3cc4occc4n3Cc3ccc(Cl)cc3)cc2C(F)(F)F)CC1
[1]
  EC50: 13.6 µM
[2]
  selectivity ratio: 25
[3]
  EC50: 4.03 µM
[4]
  selectivity ratio: 7.4
[5]
  CC50: > 100 µM

## CN1CCN(C(=O)c2cc3sccc3n2Cc2ccc(Cl)cc2)CC1
[1]
  EC50: 24.7 µM
[2]
  selectivity ratio: 10
[3]
  EC50: 9.75 µM
[4]
  selectivity ratio: 4.1

## CN(C)C1CCN(C(=O)c2cc3ccccc3n2Cc2ccc(-c3ccccc3)cc2)CC1
[1]
  EC50: 1.99 µM
[2]
  selectivity ratio: 14
[3]
  EC50: 1.06 µM
[4]
  selectivity ratio: 7.2

## CN(C)CCNC(=O)c1cc2occc2n1Cc1ccc(Cl)c(C(F)(F)F)c1
[1]
  EC50: 3.16 µM
[2]
  selectivity ratio: 17
[3]
  EC50: 1.9 µM
[4]
  selectivity ratio: 10

## COc1ccc(Cn2c(C(=O)N3CCC(N(C)C)CC3)cc3ccccc32)cc1
[11]
  EC50: ~20 µM
[1]
  EC50: 7.84 µM
[8]
  EC50: 5.28 µM
[3]
  EC50: 0.543 µM
[9]
  EC50: 1.39 µM
[12]
  EC50: 0.854 µM
[4]
  selectivity ratio: 13
[5]
  CC50: ~100 µM
[10]
  EC50: 1.23 µM
[13]
  EC50: 4.29 µM

## CN1CCCN(C(=O)c2cc3sccc3n2Cc2ccc(Cl)cc2)CC1
[1]
  EC50: 10.8 µM
[2]
  selectivity ratio: 24
[3]
  EC50: 4.16 µM
[4]
  selectivity ratio: 9.3

## CN(C)CCNC(=O)c1cn(Cc2ccc(F)cc2)c2ccccc12
[1]
  EC50: 6.47 µM
[2]
  selectivity ratio: 21
[3]
  EC50: 3 µM
[4]
  selectivity ratio: 8.9

## CN(C)CCNC(=O)c1cc2ccccc2n1Cc1ccccc1
[1]
  EC50: 6.8 µM
[2]
  selectivity ratio: 24
[3]
  EC50: 2.74 µM
[4]
  selectivity ratio: 9.5

## CC(C)N1CCN(C(=O)c2cc3sccc3n2Cc2ccc(Cl)cc2)CC1
[1]
  EC50: 32.8 µM
[2]
  selectivity ratio: 17
[3]
  EC50: 5.84 µM
[4]
  selectivity ratio: 3.1

## O=C(NCCCn1ccnc1)c1cc2occc2n1Cc1cccc(C(F)(F)F)c1
[1]
  EC50: 9.78 µM
[2]
  selectivity ratio: 13
[3]
  EC50: 4.32 µM
[4]
  selectivity ratio: 5.9

## CN(C)CCNC(=O)c1cc2occc2n1C
[1]
  EC50: > 100 µM
[2]
  selectivity ratio: 1
[3]
  EC50: > 100 µM
[4]
  selectivity ratio: 1

## O=C(NCCN1CCC1)c1cc2occc2n1Cc1cccc(C(F)(F)F)c1
[1]
  EC50: 6.22 µM
[2]
  selectivity ratio: 20
[3]
  EC50: 1.94 µM
[4]
  selectivity ratio: 6.2
